According to US9771405B2, “Nucleic acids encoding for chimeric natriuretic polypeptides with unique pharmacologic profiles” (Mayo Foundation for Medical Education and Research, priority 2008, dated 2017):

Assay: BAA-NP, BUA-NP or human BNP infusion in anesthetized dogs: renal, hemodynamic and neurohumoral measurements
Assay type: in vivo, dog
Settings: for net renal generation of cGMP / plasma cGMP / urinary cGMP excretion / urinary sodium excretion / urine flow: 30 and 60 minutes of infusion vs. pre-infusion; for plasma ANP immunoreactivity / plasma CNP immunoreactivity: RIA; for glomerular filtration rate: inulin clearance; for mean arterial pressure / renal perfusion pressure: BNP at equimolar dose; for renal perfusion pressure: mean arterial pressure minus right atrial pressure
Protocol: BAA-NP and BUA-NP were reconstituted in normal saline and were infused at 1 mL/minute. Dogs were maintained on a Na^+-controlled diet (Hill's i/d® canine diet, Hill's Pet Nutrition, Inc., Topeka, Kans.). In the evening before the experiment, the dog was fasted with ad lib access to water and was given lithium carbonate 300 mg orally for assessment of renal tubular function on the next day.
On the day of the experiment, the dog was anesthetized with pentobarbital sodium (induction 6-20 mg/kg i.v., maintenance 5-15 mg/kg/h i.v.) and fentanyl (0.04-0.12 mg/kg i.v., maintenance 0.04-0.18 mg/kg/h), and was intubated and mechanically ventilated (Harvard Apparatus, Holliston, Mass.) with 3 L/minute of 02 (tidal volume 15 mL/kg, 12 cycles/minute). The femoral artery was cannulated for blood pressure monitoring and for blood sampling. The femoral vein was cannulated for infusion of inulin and normal saline. The saphenous vein was cannulated for polypeptide infusion. A balloon-tipped thermodilution catheter (Edwards Lifesciences, Irvine, Calif.) was used for monitoring hemodynamics and body temperature (maintained at 38±1° C.). Cardiac output (CO) was measured in triplicate and averaged (model 9510-A, American Edwards Laboratories, Irvine, Calif.). Hemodynamic data were digitally recorded and analyzed (Sonometrics Corporation, London, ON). The left kidney was exposed via a flank incision. The ureter was cannulated for timed urine collection. An electromagnetic flow probe was placed on the renal artery for measuring renal blood flow (Burnett et al., Am. J. Physiol., 247(5 Pt 2):F863-6 (1984)). A weight-adjusted bolus of inulin was given, followed by an inulin infusion (1 mL/minute) to achieve plasma levels of 40-60 mg/dL (Burnett et al., Am. J. Physiol., 247(5 Pt 2):F863-6 (1984); Chen et al., Am. J. Physiol. Regul. Integr. Comp. Physiol., 288(5):R1093-7 (2005); and Margulies et al., J. Clin. Invest., 88(5):1636-42 (1991)), for measuring GFR by inulin clearance. Normal saline was infused (1 mL/minute) and was temporarily discontinued during peptide infusion (1 mL/minute).
Following equilibration of approximately 60 minutes in duration, the BAA-NP or BUA-NP polypeptide was infused for 75 minutes. Hemodynamic and renal data, as well as blood and urine samples, were collected for each 30-minute clearance: pre-infusion, at 30 and 60 minutes of infusion (time denotes mid-clearance). Inulin clearance was used for measuring glomerular filtration rate (GFR). The lithium clearance technique was used for quantifying proximal and distal fractional reabsorption of Na^+ (PFRNa and DFRNa, respectively).
Plasma and urinary ANP, CNP, and cGMP were measured by radioimmunoassays (RIA) (Chen et al., Am. J. Physiol. Regul. Integr. Comp. Physiol., 288(5):R1093-7 (2005); Burnett et al., Science, 231(4742):1145-7 (1986); Steiner et al., J. Biol. Chem., 247(4):1106-13 (1972); Supaporn et al., Kidney Int., 50(5):1718-25 (1996); and Cataliotti et al., Am. J. Physiol., 283(3):F464-72 (2002)). Plasma renin activity (Haber et al., J. Clin. Endocrinol. Metab., 29(10):1349-55 (1969)), angiotensin II (Luchner et al., Hypertension, 28(3):472-7 (1996)), and aldosterone (Sancho and Haber, J. Clin. Endocrinol. Metab., 47(2):391-6 (1978)) were quantified. Plasma and urinary lithium levels were measured by flame emission spectrophotometry (model 357, Instrumentation Laboratory, Wilmington, Mass.) (Margulies et al., J. Clin. Invest., 88(5):1636-42 (1991)). The lithium clearance technique (CLLi) was used to assess PFRNa and DFRNa as follows (Chen et al., Am. J. Physiol. Regul. Integr. Comp. Physiol., 288(5):R1093-7 (2005)): PFRNa=[1−(CLLi/GFR)]×100 and DFRNa=[(CLLi−CLNa)/CLLi]×100, where CLLi=[urine Li^+]×urine flow/[plasma Li^+] and CLNa=[urine Na^+]×urine flow/[plasma Na^+]. Net renal production of cGMP was determined (Margulies et al., J. Clin. Invest., 88(5):1636-42 (1991)): (urinary cGMP×urine flow rate)−(plasma cGMP×GFR). […]

[1] = anesthetized dogs, i.v. infusion
[2] = anesthetized dogs, i.v. infusion, vs. pre-infusion
[3] = anesthetized dogs, i.v. infusion, lithium clearance technique, vs. pre-infusion
[4] = at 30 minutes of infusion, BNP compared to BAA-NP or BUA-NP, equimolar dose
[5] = at 60 minutes of infusion, BNP compared to BAA-NP or BUA-NP, equimolar dose

Row | Substance | net renal generation of cGMP [1] | plasma cGMP [1] | urinary cGMP excretion [1] | urinary sodium excretion [1] | urine flow [1] | plasma ANP immunoreactivity [2] | plasma CNP immunoreactivity [2] | glomerular filtration rate [2] | distal fractional reabsorption of sodium [3] | proximal fractional reabsorption of sodium [3] | cardiac output [2] | hematocrit (hemoconcentration) [2] | pulmonary arterial pressure [2] | pulmonary capillary pressure [2] | renal blood flow [2] | renal vascular resistance [2] | right atrial pressure [2] | mean arterial pressure [2] | change in renal perfusion pressure from baseline [4] | change in renal perfusion pressure from baseline [5] | further results
1 | SLRRSSCFGRKMDRISSSSG-LGCNSFRY (SLRRSSCFGRKMDRISSSSGLGCNSFRY) [BAA-NP, 28-residue chimeric natriuretic polypeptide: human ANP residues 1-6, human mature BNP residues 10-26, human ANP residues 24-28] | significantly increased | significantly increased | significantly increased | significantly increased | significantly increased | significantly increased | significantly increased | preserved | significantly reduced | significantly reduced | preserved | significant increase | significantly reduced | significantly reduced | significantly enhanced | significantly reduced | significantly reduced | mild decrease | preserved | preserved | plasma aldosterone [2]: significantly suppressed; plasma angiotensin II [2]: significantly suppressed; plasma renin activity [2]: significantly suppressed; urinary excretion of ANP [2]: significantly increased; urinary excretion of CNP [2]: significantly increased; urinary potassium excretion [2]: significantly increased
2 | TAPRSLRRSSCFGRKMDRIS-SSSGLGCNSFRY (TAPRSLRRSSCFGRKMDRISSSSGLGCNSFRY) [BUA-NP, 32-residue chimeric natriuretic polypeptide: human urodilatin residues 1-10, human mature BNP residues 10-26, ANP C-terminus] | significantly increased | significantly increased | significantly increased | significantly increased | significantly increased | significantly increased | significantly increased | preserved | significantly reduced | significantly reduced | preserved | significant increase | significantly reduced | significantly reduced | significantly enhanced | significantly reduced | significantly reduced | mild decrease | preserved | preserved | activation of cGMP (BUA-NP compared with BAA-NP): greater activation; distal fractional reabsorption of sodium (BUA-NP compared with BAA-NP): greater reductions; natriuresis and diuresis (BUA-NP compared with BAA-NP): enhanced; proximal fractional reabsorption of sodium (BUA-NP compared with BAA-NP): greater reductions; renal perfusion pressure [2]: preserved; urinary potassium excretion [2]: significantly increased
3 | human BNP: human BNP natriuretic polypeptide, comparator infused at equimolar dose [reference compound] |  |  |  |  |  |  |  |  |  |  |  |  |  |  |  |  |  | significantly reduced | significantly greater decreases | significantly greater decreases | renal perfusion pressure [2]: significantly reduced; change in mean arterial pressure from baseline [4]: significantly greater reduction; change in mean arterial pressure from baseline (at 60 minutes of infusion, BNP versus BAA-NP): greater decrease
